According to patent US20250235547A1, “ANTIBODY-DRUG CONJUGATE” (UBE Corporation, priority 2022, published 2025):
Numbered stars: 1 amine (or outer) side, 2 acyl side, 3 side chain; on linkers, the order of the positions; unused ones are H or OH. Square brackets hold non-standard residues; d marks the D form. Peptide text beside a SMILES is read from it. * marks the point of attachment. X4 = COC(=O)C1OC(O[C@@H](c2ccccc2)[C@@H](C)N*)C(OC(C)=O)C(OC(C)=O)C1OC(C)=O; Dolaproine = CO[C@@H]([C@@H]1CCCN1)[C@@H](C)C(=O)O; Hexanoyl(6-maleimido) = O=C1C=CC(=O)N1CCCCCC(=O)*; Propanoyl(3-maleimido) = O=C1C=CC(=O)N1CCC(=O)*; Dil = CC[C@H](C)[C@H](NC)[C@@H](CC(=O)O)OC; X3 = C[C@@H](N*)[C@@H](OP(=O)(O)O)c1ccccc1; PABC = O=C(OCc1ccc(N[*:1])cc1)[*:2]; X1 = C[C@@H](N*)[C@@H](O)c1ccccc1; hSer(lactone) = O=C1OCC[C@@H]1N*; Cit = NC(=O)NCCC[C@H](N)C(=O)O; PEG4 = NCCOCCOCCOCCOCCC(=O)O; NMeV = CN[C@H](C(=O)O)C(C)C

Key:
porcine tubulin = target: T1, porcine tubulin (Sus scrofa, UniProt P02550+P02554); test: Tubulin polymerization inhibition test; type: biochemical; conditions: fluorescence, 37° C., 60 minutes
T1 construct: purchased Cytoskeleton, Inc. BK011P
Experimental: For measuring the tubulin polymerization inhibitory action, Tubulin Polymerization Assay Kit (manufactured by Cytoskeleton, Inc., BK011P) was used. A PIPES buffer containing porcine tubulin, GTP, MgCl2, EGTA, Glycerol, and a fluorescent reporter was prepared under ice-cooling as a reaction solution. The reaction solution was ice-cooled until it was used. A test compound solution was prepared by an aqueous solution containing 1.5% DMSO, and added to a 96 well plate (manufactured by Corning Inc., 3686) at 5 μL/well. The reaction solution was added thereto at 50 μL/well, the plate was placed in a microplate reader (FlexStation 3, manufactured by Molecular Device, LLC) in which the internal temperature was set to 37° C. in advance, and the fluorescence intensity measurement (excitation wavelength: 360 nm, detection wavelength: 420 nm) of each well was started. The fluorescence intensity was measured once every minute, and the measurement was continued for 60 minutes.
The tubulin polymerization inhibition rate (%) was calculated by the following equation.
Amount of fluorescence intensity increase: (average fluorescence intensity after 51 to 60 minutes from measurement start)−(average fluorescence intensity after 1 to 6 minutes from measurement start)

[1] = Retention time in HPLC of reactive precursor (index of hydrophilicity); type: physicochemical; conditions: BEH C18, 0.1% formic acid water/acetonitrile gradient, 40° C.
Experimental: As an index of hydrophilicity of the reactive precursor (Compound (III)), the retention time (RT) in HPLC analysis was measured, and compared.

T1 sequence (P02554 whole entry): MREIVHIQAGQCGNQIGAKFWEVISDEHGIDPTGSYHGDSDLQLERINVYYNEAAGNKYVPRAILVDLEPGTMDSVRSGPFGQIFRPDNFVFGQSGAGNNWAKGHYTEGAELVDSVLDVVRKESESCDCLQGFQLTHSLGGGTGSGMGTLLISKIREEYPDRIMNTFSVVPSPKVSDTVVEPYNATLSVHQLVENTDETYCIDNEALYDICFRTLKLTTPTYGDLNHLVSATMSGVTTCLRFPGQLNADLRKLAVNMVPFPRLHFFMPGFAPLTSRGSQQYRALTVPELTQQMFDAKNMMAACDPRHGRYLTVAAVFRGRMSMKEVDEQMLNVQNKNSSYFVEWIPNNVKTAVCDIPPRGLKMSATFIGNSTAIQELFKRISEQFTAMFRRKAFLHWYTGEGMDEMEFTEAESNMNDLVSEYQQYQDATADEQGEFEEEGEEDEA
T1 sequence (P02550 whole entry): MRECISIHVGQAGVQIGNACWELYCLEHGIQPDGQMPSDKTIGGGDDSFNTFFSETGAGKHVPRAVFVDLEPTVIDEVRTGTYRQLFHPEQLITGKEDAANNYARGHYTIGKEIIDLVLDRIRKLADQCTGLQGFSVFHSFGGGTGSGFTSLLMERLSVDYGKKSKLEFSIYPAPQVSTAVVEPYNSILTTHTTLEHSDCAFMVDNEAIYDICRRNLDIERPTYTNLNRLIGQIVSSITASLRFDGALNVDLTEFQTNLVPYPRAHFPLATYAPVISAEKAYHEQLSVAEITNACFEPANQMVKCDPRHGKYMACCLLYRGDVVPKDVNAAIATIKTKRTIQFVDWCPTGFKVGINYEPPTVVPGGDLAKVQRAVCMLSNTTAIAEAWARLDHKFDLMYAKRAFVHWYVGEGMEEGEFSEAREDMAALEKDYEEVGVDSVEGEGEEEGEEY

| SMILES | IC50 (porcine tubulin) [µM] | Retention time in HPLC measurement [1] [min] |
| --- | --- | --- |
| CC[C@H](C)[C@@H]([C@@H](CC(=O)N1CCC[C@H]1[C@H](OC)[C@@H](C)C(=O)N[C@H](C)[C@@H](OC1OC(C(=O)OC)C(OC(C)=O)C(OC(C)=O)C1OC(C)=O)c1ccccc1)OC)N(C)C(=O)[C@@H](NC(=O)[C@@H](NC)C(C)C)C(C)C (some centres unmarked) [Example U-014] (H-[NMeV]V[Dil][Dolaproine]-X4) | ≤ 3 |  |
| CC[C@H](C)[C@@H]([C@@H](CC(=O)N1CCC[C@H]1[C@H](OC)[C@@H](C)C(=O)N[C@H](C)[C@@H](OP(=O)(O)OCc1ccc(NC(=O)[C@H](CCCNC(N)=O)NC(=O)[C@@H](NC(=O)[C@H](CC(=O)N[C@H]2CCOC2=O)NC(=O)CCOCCOCCOCCOCCNC(=O)[C@H](CNC(=O)CCP(=O)(O)O)N2C(=O)C=CC2=O)C(C)C)cc1)c1ccccc1)OC)N(C)C(=O)[C@@H](NC(=O)[C@H](C(C)C)N(C)C)C(C)C [Reference Example 3] |  | 0.70 |
| CC[C@H](C)[C@@H]([C@@H](CC(=O)N1CCC[C@H]1[C@H](OC)[C@@H](C)C(=O)N[C@H](C)[C@@H](OP(=O)(O)O)c1ccccc1)OC)N(C)C(=O)[C@@H](NC(=O)[C@H](C(C)C)N(C)C(=O)OCc1ccc(NC(=O)[C@H](CCCNC(N)=O)NC(=O)[C@@H](NC(=O)[C@H](CC(=O)N[C@H]2CCOC2=O)NC(=O)CCOCCOCCOCCOCCNC(=O)CCN2C(=O)C=CC2=O)C(C)C)cc1)C(C)C [Reference Example 2] ({Propanoyl(3-maleimido)-PEG4}-D(hSer(lactone))V[Cit][PABC][NMeV]V[Dil][Dolaproine]-X3) |  | 0.96 |
| C=C1C[C@@H]2CC[C@@]34C[C@H]5O[C@H]6[C@@H](O3)[C@H]3O[C@H](CC[C@@H]3O[C@H]6[C@H]5O4)CC(=O)C[C@@H]3[C@@H](OC)[C@@H](C[C@H](O)CNC(=O)OCc4ccc(NC(=O)[C@H](CCCNC(N)=O)NC(=O)[C@@H](NC(=O)CCOCCOCCN5C(=O)C=CC5=O)C(C)C)cc4)O[C@H]3C[C@H]3O[C@@H](CC[C@@H]1O2)C[C@@H](C)C3=C [Mal-PEG2-Val-Cit-PAB-Eribulin, reference compound] |  | 1.19 |
| CC[C@H](C)[C@@H]([C@@H](CC(=O)N1CCC[C@H]1C(OC)[C@@H](C)C(=O)N[C@H](C)[C@@H](O)c1ccccc1)OC)N(C)C(=O)[C@@H](NC(=O)[C@H](C(C)C)N(C)C(=O)OCc1ccc(NC(=O)[C@H](CCCNC(N)=O)NC(=O)[C@@H](NC(=O)[C@H](CC(=O)NC2CCOC2=O)NC(=O)[C@H](CC(=O)N[C@H]2CCOC2=O)NC(=O)[C@H](CC(=O)N[C@H]2CCOC2=O)NC(=O)[C@H](CC(=O)N[C@H]2CCOC2=O)NC(=O)[C@H](CC(=O)NC2CCOC2=O)NC(=O)CCOCCOCCOCCOCCNC(=O)CCN2C(=O)C=CC2=O)C(C)C)cc1)C(C)C (stereo in doubt) [Reference Example 6] |  | 1.09 |
| C=C1C[C@@H]2CC[C@@]34C[C@H]5O[C@H]6[C@@H](O3)[C@H]3O[C@H](CC[C@@H]3O[C@H]6[C@H]5O4)CC(=O)C[C@@H]3[C@@H](OC)[C@@H](C[C@@H](CCNC(=O)OCc4ccc(NC(=O)[C@H](CCCNC(N)=O)NC(=O)[C@@H](NC(=O)[C@H](CC(=O)N[C@H]5CCOC5=O)NC(=O)CCOCCOCCOCCOCCNC(=O)[C@H](CNC(=O)CCP(=O)(O)O)N5C(=O)C=CC5=O)C(C)C)cc4)OP(=O)(O)O)O[C@H]3C[C@H]3O[C@@H](CC[C@@H]1O2)C[C@@H](C)C3=C [Reference Example 26] |  | 0.91 |
| CC[C@H](C)[C@@H]([C@@H](CC(=O)N1CCC[C@H]1[C@H](OC)[C@@H](C)C(=O)N[C@H](C)[C@@H](O)c1ccccc1)OC)N(C)C(=O)[C@@H](NC(=O)[C@H](C(C)C)N(C)Cc1cc([N+](=O)[O-])ccc1F)C(C)C [Example U-008] | ≤ 3 |  |
| CC[C@H](C)[C@@H]([C@@H](CC(=O)N1CCC[C@H]1[C@H](OC)[C@@H](C)C(=O)N[C@H](C)[C@@H](O)c1ccccc1)OC)N(C)C(=O)[C@@H](NC(=O)[C@H](C(C)C)N(C)C(=O)OCc1ccc(NC(=O)[C@H](CCCNC(N)=O)NC(=O)[C@@H](NC(=O)CCCCCN2C(=O)C=CC2=O)C(C)C)cc1)C(C)C [MC-Val-Cit-PAB-MMAE, reference compound] ({Hexanoyl(6-maleimido)}-V[Cit][PABC][NMeV]V[Dil][Dolaproine]-X1) |  | 1.24 |
